Active and inactive are the calls of the source. The calls are words filed in the database; no cut-off is given here.
Key:
C6 [1] = assay: Cytotoxicity against rat C6 cells assessed as cell death after 24 to 48 hrs by MTT assay; assay type: functional, cell-based
C6 [2] = assay: Growth stimulation of rat C6 cells at 100 uM after 24 hrs by MTT assay relative to control; assay type: functional
C6 [3] = assay: Growth stimulation of rat C6 cells at 100 uM after 48 hrs by MTT assay relative to control; assay type: functional
C6 [4] = assay: Cytotoxicity against rat C6 cells assessed as decrease in cell number at 10 uM after 24 hrs by MTT assay; assay type: functional; set-up: scale not given: the % may be the effect or the level left
C6 [5] = assay: Cytotoxicity against rat C6 cells assessed as decrease in cell number at 100 uM after 48 hrs by MTT assay; assay type: functional; set-up: scale not given: the % may be the effect or the level left
C6 [6] = assay: Cytotoxicity against rat C6 cells assessed as cell death at 10 to 100 uM after 48 hrs by MTT assay; assay type: functional, cell-based
C6 [7] = assay: Cytotoxicity against rat C6 cells assessed as decrease in cell number at 100 uM after 24 hrs by MTT assay; assay type: functional; set-up: scale not given: the % may be the effect or the level left

With `OC[C@H]1O[C@@H](N2c3ccccc3[C@]3(O)CCO[C@H]23)[C@H](O)[C@@H](O)[C@@H]1O` the Activity (C6 [1]) was “inactive”.
Work on `O[C@@]12CCO[C@@H]1Nc1ccccc12` yielded an Activity (C6 [2]) of 112% and an Activity (C6 [3]) of 114.2%.
For `OC[C@@H]1O[C@H](N2c3ccccc3[C@]3(O)CCO[C@H]23)[C@@H](O)[C@H](O)[C@H]1O`, the Activity (C6 [4]) was 92.4%, the Activity (C6 [5]) was 87.9% and the Activity (C6 [6]) was “inactive”. For the same compound, the Activity (C6 [7]) was 83.9%.
